Source: ChEMBL document CHEMBL1159146, “Structure-activity studies of N-cyano-3-pyridinecarboxamidines and their amide and thioamide congeners” (1994)

Experiments:
Assay type in all cases: functional
Cavia porcellus [1] = organism: Cavia porcellus; assay: Compound was tested for chronotropic activity in right atria of guinea pig
Cavia porcellus [2] = organism: Cavia porcellus; assay: Compound was tested for negative inotropic activity in left atria of guinea pig
Rattus norvegicus = organism: Rattus norvegicus; assay: Compound was tested for […] vasorelaxing activity in aorta of rat

Row | Compound | pD2 (Cavia porcellus [1]) | pD2 (Cavia porcellus [2]) | pD2 (Rattus norvegicus)
1 | S=C(NCCc1ccccc1)c1cccnc1 | 4.1 | 4.39 | 4.95
2 | O=C(NCCc1ccccc1)c1cccnc1 | <3.5 | <3.5 | 4.09
3 | N#CN/C(=N\CCc1ccccc1)c1cccnc1 | 3.85 | 4.6 | 6.4
4 | N#CN/C(=N\CCO[N+](=O)[O-])c1cccnc1 | 4.42 | 4.84 | 6.95
5 | S=C(NCCc1ccccc1Cl)c1cccnc1 | 4.54 | <4.5 | 5.64
6 | N#CN/C(=N\CCc1ccccc1Cl)c1cccnc1 | 5.32 | 5.51 | 7.57
7 | O=C(NCCc1ccccc1Cl)c1cccnc1 | <3.5 | 3.7 | 4.83
8 | O=C(NCCO[N+](=O)[O-])c1cccnc1 [NICORANDIL] | <3.5 | <3.5 | 5.62
